Source: patent publication EP0598011B1, “ECDYSTEROID DEPENDENT REGULATION OF GENES IN MAMMALIAN CELLS” (GENENTECH, INC., priority 1991, dated 1993)

Target: T1, DHR23α (Drosophila melanogaster, UniProt P34021)
T1 construct: To isolate the full-length DHR23α clones; expressed in transfected cells; host or cells: human 293 cells
T1 sequence (P34021 1-878): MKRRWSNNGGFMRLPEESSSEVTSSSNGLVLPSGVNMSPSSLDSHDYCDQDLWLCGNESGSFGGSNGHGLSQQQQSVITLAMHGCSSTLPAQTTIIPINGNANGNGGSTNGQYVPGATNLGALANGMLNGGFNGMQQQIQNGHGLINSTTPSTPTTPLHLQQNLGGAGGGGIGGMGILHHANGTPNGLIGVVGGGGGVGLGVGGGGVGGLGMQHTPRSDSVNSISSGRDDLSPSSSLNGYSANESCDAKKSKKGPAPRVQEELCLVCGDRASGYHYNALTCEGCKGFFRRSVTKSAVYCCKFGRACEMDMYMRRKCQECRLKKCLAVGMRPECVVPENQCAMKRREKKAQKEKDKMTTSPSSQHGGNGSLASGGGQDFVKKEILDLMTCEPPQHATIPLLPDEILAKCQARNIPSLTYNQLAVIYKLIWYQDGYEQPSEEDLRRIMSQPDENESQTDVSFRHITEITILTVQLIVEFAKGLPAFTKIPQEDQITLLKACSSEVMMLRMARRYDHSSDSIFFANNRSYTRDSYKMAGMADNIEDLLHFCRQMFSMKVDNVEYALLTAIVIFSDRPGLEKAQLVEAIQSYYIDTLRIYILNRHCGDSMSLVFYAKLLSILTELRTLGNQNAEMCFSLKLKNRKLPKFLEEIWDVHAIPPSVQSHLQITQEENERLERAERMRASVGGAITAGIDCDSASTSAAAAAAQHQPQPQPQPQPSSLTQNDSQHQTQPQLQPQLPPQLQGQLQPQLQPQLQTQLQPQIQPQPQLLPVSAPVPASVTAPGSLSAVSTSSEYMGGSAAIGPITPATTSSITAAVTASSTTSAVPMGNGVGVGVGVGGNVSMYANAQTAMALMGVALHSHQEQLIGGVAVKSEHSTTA
T1 sequence (P19793 1-462 partner): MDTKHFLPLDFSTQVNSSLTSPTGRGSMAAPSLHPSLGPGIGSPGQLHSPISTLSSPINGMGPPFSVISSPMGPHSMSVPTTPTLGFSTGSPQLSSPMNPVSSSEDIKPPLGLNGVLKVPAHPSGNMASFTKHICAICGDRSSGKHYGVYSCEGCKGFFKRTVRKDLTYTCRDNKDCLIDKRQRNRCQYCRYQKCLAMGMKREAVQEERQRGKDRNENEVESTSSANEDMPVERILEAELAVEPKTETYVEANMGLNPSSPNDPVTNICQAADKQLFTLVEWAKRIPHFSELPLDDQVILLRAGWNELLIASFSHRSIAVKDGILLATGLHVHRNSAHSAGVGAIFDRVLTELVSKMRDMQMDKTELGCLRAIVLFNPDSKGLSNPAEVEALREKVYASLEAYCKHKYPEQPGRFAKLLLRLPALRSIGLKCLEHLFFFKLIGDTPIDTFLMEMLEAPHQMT
Assay: DHR23α transactivation of EcRE (Ec4M-77CO) CAT reporter in transfected human 293 cells
Type: cell-based
Details: pRSV.DHR23α + pEc4M-77CO (EcRE) CAT reporter, ligand 1 µM, 48 hrs
Protocol: Figure. 2. […] Human 293 cells were cotransfected with 2.5 µg of the expression plasmid pRSV.DHR23α or the parental expression plasmid pRSV (Control) and 0.5 µgs of the reporter plasmid pEc4M-77CO (EcRE) or pG4M-77CO (GRE). As a control for transfection efficiency, 0.5 µgs of the control plasmid pRSV.hGH was included in the transfection mixture. After transfection, cells were treated without (-) or with alpha-ecdysone (alpha), 20-OH ecdysone (20-OH), polypodine B (ppB), ponasterone A (ponA) or muristeroine A (murA). CAT extracts were harvested 48 hrs after transfection and assayed. The values were normalized to the expression of hGH and the average values of three independent experiments are shown. The "fold induction" represents the level of expression of the reporter gene in cells incubated with hormone divided by the expression of that reporter gene in extracts from cells incubated in the absence of added ligand.
I determined whether DHR23α could function in mammalian cells treated with ecdysteroids to enhance the transcription of a reporter gene containing EcREs linked to the murine mammary tumor virus (MTV) promoter and chloramphenicol acetyltransferase (CAT) gene. Human 293 cells were cotransfected with an RSV-based expression vector that encodes DHR23a and the reporter gene Ec4M-77CO that contains 4 copies of an ecdysone response element (EcRE) from the Drosophila HSP27 promoter (G. Riddihough and H. R. B. Pelham, EMBO J. 6, 3729 [1987]) linked to an MTV promoter-CAT construct.
Human 293 cells were cotransfected with 2.5 µg of the expression plasmid pRSV.DHR23α or the parental expression plasmid pRSV (Control) and 0.5 µgs of the reporter plasmid pEc4M-77CO (EcRE) or pG4M-77CO (GRE). As a control for transfection efficiency, 0.5 µgs of the control plasmid pRSV.hGH was included in the transfection mixture. After transfection, cells were treated without (-) or with alpha-ecdysone (alpha), 20-OH ecdysone (20-OH), polypodine B (ppB), ponasterone A (ponA) or muristeroine A (murA). All candidate ligands were added at a concentration of 1 µM. CAT extracts were harvested 48 hrs after transfection, and assays were performed as described (D. R. Cavener, Nucl. Acids Res. 15, 1353-1361 [1987]). The values were normalized to the expression of hGH and the average values of three independent experiments are shown in Figure 2. The "fold induction" represents the level of expression of the reporter gene in cells incubated with hormone divided by the expression of that reporter gene in extracts from cells incubated in the absence of added ligand.
Cells were transfected with the DHR23α expression vector and Ec4M-77CO reporter gene and treated without (-) or with the following hormones (1 µM): muristerone A (mur A) dexamethasone (Dex) 17β-estradiol (E2), aldosterone (Aldo), corticosterone (Cort) hydroxycorticosterone (OH-Cort) thyroid hormone (T3), promegestone (Promeg) or 1,25-dihydroxy vitamin D3 (VD3). Reporter gene activity was determined as described above for Figure 2.

CC(C)CCC(O)[C@](C)(O)[C@H]1CC[C@@]2(O)C3=CC(=O)C4(O)CC(O)C(O)C[C@]4(C)[C@H]3C(O)C[C@]12C (some centres unmarked) [muristerone A, 2,3,5,11,14,20,22-Heptahydroxy-7-cholesten-6-one]
agonist for DHR23α in mammalian cells (expression of the reporter gene): markedly increased | agonist for DHR23α in mammalian cells (expression of the reporter gene) (listed as muristerone): strong agonist
